Measurements as given in BindingDB's records for patent WO2022115301 (MERCK SHARP & DOHME LLC, 2022).

biological target: T1, Ceramide glucosyltransferase (Homo sapiens, UniProt Q16739); experiment: UDP-Glo Glucosylceramide Synthase Biochemical Assay
T1 sequence (Q16739 whole entry): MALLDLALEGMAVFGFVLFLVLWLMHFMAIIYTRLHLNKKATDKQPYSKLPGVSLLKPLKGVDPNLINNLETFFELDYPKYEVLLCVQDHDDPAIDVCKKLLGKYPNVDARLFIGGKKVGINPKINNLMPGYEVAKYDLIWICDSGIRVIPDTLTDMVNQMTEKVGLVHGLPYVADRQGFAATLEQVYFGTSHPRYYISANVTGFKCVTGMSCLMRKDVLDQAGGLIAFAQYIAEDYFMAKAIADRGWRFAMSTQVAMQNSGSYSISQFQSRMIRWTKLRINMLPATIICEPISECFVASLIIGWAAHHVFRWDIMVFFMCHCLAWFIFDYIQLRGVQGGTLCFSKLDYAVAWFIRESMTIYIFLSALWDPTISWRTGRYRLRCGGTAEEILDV
Procedure: Using Promega s UDP-Glo Glycosyltransferase assay kit (Promega Corporation, Madison, WI, USA (Promega)), GCS activity was indirectly measured by detecting the amount of UDP produced. An aliquot of GCS enzyme (1.5 µg crude golgi preparation, total protein) and titrated test compound were aliquoted to each well and incubated for 30 minutes at room temperature. […] An equivalent volume of substrate mixture was then added to each well. Following a 20 h incubation at room temperature to allow for GCS turnover of substrate, an equal volume of UDP detection reagent (Promega) was added to each well and incubated for an additional 75 minutes at room temperature to simultaneously convert the accumulated UDP product into ATP and generate light in a luciferase reaction. The generated light was detected using a luminometer. […] luminescence values (RLUs) were normalized to mean min and max effects, as determined on each plate. […] See Levenberg, K., A Method for the Solution of Certain Problems in Least Squares , Quart. Appl.

EC50 [nM]	Structure (SMILES)
52	CC(C)(O)[C@@H](C1CC1)N1Cc2cccc(-c3ccc(-c4nnco4)cc3)c2C1=O [WO2022115301, Example 5]
4.5	Cn1c(=O)n(C)c2cc(-c3cccc4c3C(=O)N([C@H](C3CC3)C(C)(C)O)C4)ccc21 [WO2022115301, Example 6]
3.6	CC(C)(O)[C@@H](C1CC1)N1Cc2cccc(-c3ccccc3OCC(F)(F)F)c2C1=O [WO2022115301, Example 7]
7.5	COc1cc(C#N)cc(-c2cccc3c2C(=O)N([C@H](C2CC2)C(C)(C)O)C3)c1 [WO2022115301, Example 8]
24	Cc1nnc(-c2ccc(-c3cccc4c3C(=O)N([C@H](C3CC3)C(C)(C)O)C4)cc2F)o1 [WO2022115301, Example 9]
2.8	COc1cc(Cl)cc(-c2cccc3c2C(=O)N([C@H](C2CC2)C(C)(C)O)C3)c1 [WO2022115301, Example 10]
4.9	Cc1n[nH]c2cc(F)c(-c3cccc4c3C(=O)N([C@H](C3CC3)C(C)(C)O)C4)cc12 [WO2022115301, Example 11]
13	Cn1ncc2cc(-c3cccc4c3C(=O)N([C@H](C3CC3)C(C)(C)O)C4)ccc21 [WO2022115301, Example 12]
48	CC(C)(O)[C@@H](C1CC1)N1Cc2cccc(-c3cccc(OCC(F)(F)F)c3)c2C1=O [WO2022115301, Example 14]
6.4	Cn1cc(-c2ccc(-c3cccc4c3C(=O)N([C@H](C3CC3)C(C)(C)O)C4)cc2)cn1 [WO2022115301, Example 15]
39	CC(C)(O)[C@@H](C1CC1)N1Cc2cccc(-c3cccc4c3OC(F)(F)O4)c2C1=O [WO2022115301, Example 16]
580	CC(C)(O)[C@@H](C1CC1)N1Cc2cccc(-c3ccc(-n4nccn4)cc3)c2C1=O [WO2022115301, Example 17]
0.93	Cn1cc(-c2ccc(-c3cc(F)cc4c3C(=O)N([C@H](C3CC3)C(C)(C)O)C4)cc2)cn1 [WO2022115301, Example 24]
9.2	CN1Cc2cc(-c3cc(F)cc4c3C(=O)N([C@H](C3CC3)C(C)(C)O)C4)ccc2C1=O [WO2022115301, Example 25]
